Data on 30 compounds can be found in patent US12534452B2, “N-(1H-imidazol-2-yl)benzamide compound and pharmaceutical composition comprising the same as active ingredient” (KAINOS MEDICINE, INC., priority 2019, dated 2026).

IRAK4, sequence (Q9NWZ3 whole entry): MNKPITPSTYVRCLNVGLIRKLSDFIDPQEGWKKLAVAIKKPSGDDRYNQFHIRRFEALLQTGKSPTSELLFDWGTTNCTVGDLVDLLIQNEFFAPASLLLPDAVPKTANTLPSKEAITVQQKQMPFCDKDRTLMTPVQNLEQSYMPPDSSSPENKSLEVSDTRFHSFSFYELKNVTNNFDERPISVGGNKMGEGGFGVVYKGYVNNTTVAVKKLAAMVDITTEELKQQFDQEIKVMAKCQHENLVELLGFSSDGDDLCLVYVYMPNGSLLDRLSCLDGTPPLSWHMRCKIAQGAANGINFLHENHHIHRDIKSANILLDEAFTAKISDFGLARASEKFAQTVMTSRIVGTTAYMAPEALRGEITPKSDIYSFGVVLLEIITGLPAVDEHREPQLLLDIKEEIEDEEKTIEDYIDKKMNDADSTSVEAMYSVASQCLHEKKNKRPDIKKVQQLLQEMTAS

The target of this experiment is IRAK4 (Homo sapiens (Human), UniProt Q9NWZ3). Description: In vitro IRAK4 phosphorylation activity assay. As to conditions: [γ-33P]-ATP, myelin basic protein substrate, 40 minutes at room temperature; categories. Format: biochemical. The method in brief:
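Radiometric filter-binding assay, no compound–kinase preincubation; 8 mM MOPS pH 7.0, 0.2 mM EDTA, 10 mM Mg acetate, 0.33 mg/mL myelin basic protein substrate, [γ-33P]-ATP. Reaction 40 min at room temperature, stopped with phosphoric acid, scintillation counting; IC50 reported in categories.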
`CC(C)N1CCN(C(=O)CCCc2cn(-c3ccccc3)c(NC(=O)c3cccc(-c4cnn(C)c4)c3)n2)CC1` [Example 145, N-(4-(4-(4-isopropylpiperazin-1-yl)-4-oxobutyl)-1-phenyl-1H-imidazol-2-yl)-3-(1-methyl-1H-pyrazol-4-yl)benzamide]: the IC50 was less than 50 nM.

Compound `CN(C)C1CCN(C(=O)CCCc2cn(-c3ccccc3)c(NC(=O)c3cccc(-c4cnn(C)c4)c3)n2)CC1` [Example 146, N-(4-(4-(4-(dimethylamino)piperidin-1-yl)-4-oxobutyl)-1-phenyl-1H-imidazol-2-yl)-3-(1-methyl-1H-pyrazol-4-yl)benzamide] returned an IC50 of less than 50 nM.

`CN(C)C1CCC(NC(=O)CCCc2cn(-c3ccccc3)c(NC(=O)c3cccc(-c4cnn(C)c4)c3)n2)CC1` (stereo not drawn) [Example 147, N-(4-(4-((4-(dimethylamino)cyclohexyl)amino)-4-oxobutyl)-1-phenyl-1H-imidazol-2-yl)-3-(1-methyl-1H-pyrazol-4-yl)benzamide]: the IC50 is less than 50 nM.

`CN1CCC(NC(=O)CCCc2cn(-c3ccccc3)c(NC(=O)c3cccc(-c4cnn(C)c4)c3)n2)CC1` [Example 148, 3-(1-methyl-1H-pyrazol-4-yl)-N-(4-(4-((1-methylpiperidin-4-yl)amino)-4-oxobutyl)-1-phenyl-1H-imidazol-2-yl)benzamide] showed an IC50 of 50 to 100 nM. For `Cn1cc(-c2cccc(C(=O)Nc3nc(CCCC(=O)N4CCN(C5CC5)CC4)cn3-c3ccccc3)c2)cn1` [Example 149, N-(4-(4-(4-cyclopropylpiperazin-1-yl)-4-oxobutyl)-1-phenyl-1H-imidazol-2-yl)-3-(1-methyl-1H-pyrazol-4-yl)benzamide] the value was less than 50 nM. On to `Cn1cc(-c2cccc(C(=O)Nc3nc(CCCC(=O)Nc4ccncc4)cn3-c3ccccc3)c2)cn1` [Example 150, 3-(1-methyl-1H-pyrazol-4-yl)-N-(4-(4-oxo-4-(pyridin-4-ylamino)butyl)-1-phenyl-1H-imidazol-2-yl)benzamide], for which the IC50 was less than 50 nM. For the compound `Cn1cc(-c2cccc(C(=O)Nc3nc(CCCC(=O)NN4CCCC4)cn3-c3ccccc3)c2)cn1` [Example 151, 3-(1-methyl-1H-pyrazol-4-yl)-N-(4-(4-oxo-4-(pyrrolidin-1-ylamino)butyl)-1-phenyl-1H-imidazol-2-yl)benzamide], the concentration for half-maximal inhibition (IC50) was less than 50 nM. For `Cn1cc(-c2cccc(C(=O)Nc3nc(CCCC(=O)NN4CCCCC4)cn3-c3ccccc3)c2)cn1` [Example 152, 3-(1-methyl-1H-pyrazol-4-yl)-N-(4-(4-oxo-4-(piperidin-1-ylamino)butyl)-1-phenyl-1H-imidazol-2-yl)benzamide] the value was 50 to 100 nM. For `CN1CCN(NC(=O)CCCc2cn(-c3ccccc3)c(NC(=O)c3cccc(-c4cnn(C)c4)c3)n2)CC1` [Example 153, 3-(1-methyl-1H-pyrazol-4-yl)-N-(4-(4-((4-methylpiperazin-1-yl)amino)-4-oxobutyl)-1-phenyl-1H-imidazol-2-yl)benzamide] the value was 50 to 100 nM. For `Cn1cc(-c2cccc(C(=O)Nc3nc(CCCC(=O)N4CCC(N5CCCC5)CC4)cn3-c3ccccc3)c2)cn1` [Example 154, 3-(1-methyl-1H-pyrazol-4-yl)-N-(4-(4-oxo-4-(4-(pyrrolidin-1-yl)piperidin-1-yl)butyl)-1-phenyl-1H-imidazol-2-yl)benzamide] the value was less than 50 nM.

Compound `CN(C)c1ccc(NC(=O)CCCc2cn(-c3ccccc3)c(NC(=O)c3cccc(-c4cnn(C)c4)c3)n2)cc1` [Example 155, N-(4-(4-((4-(dimethylamino)phenyl)amino)-4-oxobutyl)-1-phenyl-1H-imidazol-2-yl)-3-(1-methyl-1H-pyrazol-4-yl)benzamide] had a 50% inhibitory concentration (IC50) of less than 50 nM. The same measure for `Cn1cc(-c2cccc(C(=O)Nc3nc(CCCC(=O)NC4CCC(O)CC4)cn3-c3ccccc3)c2)cn1` [Example 156, N-(4-(4-(((1R,4R)-4-hydroxycyclohexyl)amino)-4-oxobutyl)-1-phenyl-1H-imidazol-2-yl)-3-(1-methyl-1H-pyrazol-4-yl)benzamide]: less than 50 nM. The same measure for `Cn1cc(-c2cccc(C(=O)Nc3nc(CCCC(=O)NC4CCOCC4)cn3-c3ccccc3)c2)cn1` [Example 157, 3-(1-methyl-1H-pyrazol-4-yl)-N-(4-(4-oxo-4-((tetrahydro-2H-pyran-4-yl)amino)butyl)-1-phenyl-1H-imidazol-2-yl)benzamide]: less than 50 nM; for `Cn1cc(-c2cccc(C(=O)Nc3nc(CCCC(=O)NCCCN4CCCCC4)cn3-c3ccccc3)c2)cn1` [Example 158, 3-(1-methyl-1H-pyrazol-4-yl)-N-(4-(4-oxo-4-((3-(piperidin-1-yl)propyl)amino)butyl)-1-phenyl-1H-imidazol-2-yl)benzamide]: less than 50 nM; for `Cn1cc(-c2cccc(C(=O)Nc3nc(CCCC(=O)NCCN4CCCCC4)cn3-c3ccccc3)c2)cn1` [Example 159, 3-(1-methyl-1H-pyrazol-4-yl)-N-(4-(4-oxo-4-((2-(piperidin-1-yl)ethyl)amino)butyl)-1-phenyl-1H-imidazol-2-yl)benzamide]: less than 50 nM. The compound `Cn1cc(-c2cccc(C(=O)Nc3nc(CCCC(=O)N4CCOCC4)cn3-c3ccccc3)c2)cn1` [Example 160, 3-(1-methyl-1H-pyrazol-4-yl)-N-(4-(4-morpholino-4-oxobutyl)-1-phenyl-H-imidazol-2-yl)benzamide] returned an IC50 of less than 50 nM. For `COC1CCC(NC(=O)CCCc2cn(-c3ccccc3)c(NC(=O)c3cccc(-c4cnn(C)c4)c3)n2)CC1` (stereo not drawn) [Example 161, N-(4-(4-((4-methoxycyclohexyl)amino)-4-oxobutyl)-1-phenyl-1H-imidazol-2-yl)-3-(1-methyl-1H-pyrazol-4-yl)benzamide] the value was less than 50 nM; for `CN(C)CCNC(=O)CCCc1cn(-c2ccccc2)c(NC(=O)c2cccc(-c3cnn(C)c3)c2)n1` [Example 162, N-(4-(4-((2-(dimethylamino)ethyl)amino)-4-oxobutyl)-1-phenyl-1H-imidazol-2-yl)-3-(1-methyl-1H-pyrazol-4-yl)benzamide], 50 to 100 nM. For `CN(C)CCCNC(=O)CCCc1cn(-c2ccccc2)c(NC(=O)c2cccc(-c3cnn(C)c3)c2)n1` [Example 163, N-(4-(4-((3-(dimethylamino)propyl)amino)-4-oxobutyl)-1-phenyl-1H-imidazol-2-yl)-3-(1-methyl-1H-pyrazol-4-yl)benzamide] the value was 50 to 100 nM.

With `Cn1cc(-c2cccc(C(=O)Nc3nc(CCCC(=O)NCCO)cn3-c3ccccc3)c2)cn1` [Example 164, N-(4-(4-((2-hydroxyethyl)amino)-4-oxobutyl)-1-phenyl-1H-imidazol-2-yl)-3-(1-methyl-1H-pyrazol-4-yl)benzamide], the half-maximal inhibitory concentration (IC50) was less than 50 nM.

Compound `Cn1cc(-c2cccc(C(=O)Nc3nc(CCCC(=O)NCCCO)cn3-c3ccccc3)c2)cn1` [Example 165, N-(4-(4-((3-hydroxypropyl)amino)-4-oxobutyl)-1-phenyl-1H-imidazol-2-yl)-3-(1-methyl-1H-pyrazol-4-yl)benzamide] gave an IC50 of less than 50 nM. The same measure for `CC1CCCCN1C(=O)CCCc1cn(-c2ccccc2)c(NC(=O)c2cccc(-c3cnn(C)c3)c2)n1` (stereo not drawn) [Example 166, 3-(1-methyl-1H-pyrazol-4-yl)-N-(4-(4-(2-methylpiperidin-1-yl)-4-oxobutyl)-1-phenyl-1H-imidazol-2-yl)benzamide]: less than 50 nM. The same measure for `Cn1cc(-c2cccc(C(=O)Nc3nc(CCCC(=O)N4CCC(C)(C)CC4)cn3-c3ccccc3)c2)cn1` [Example 167, N-(4-(4-(4,4-dimethylpiperidin-1-yl)-4-oxobutyl)-1-phenyl-1H-imidazol-2-yl)-3-(1-methyl-1H-pyrazol-4-yl)benzamide]: less than 50 nM; for `Cn1cc(-c2cccc(C(=O)Nc3nc(CCCC(=O)N4CCC(C#N)CC4)cn3-c3ccccc3)c2)cn1` [Example 168, N-(4-(4-(4-cyanopiperidin-1-yl)-4-oxobutyl)-1-phenyl-1H-imidazol-2-yl)-3-(1-methyl-TH-pyrazol-4-yl)benzamide]: less than 50 nM.

Regarding `Cn1cc(-c2cccc(C(=O)Nc3nc(CCCC(=O)N4CCC(O)CC4)cn3-c3ccccc3)c2)cn1` [Example 169, N-(4-(4-(4-hydroxypiperidin-1-yl)-4-oxobutyl)-1-phenyl-1H-imidazol-2-yl)-3-(1-methyl-1H-pyrazol-4-yl)benzamide], the IC50 was less than 50 nM. For `Cn1cc(-c2cccc(C(=O)Nc3nc(CCCC(=O)NCC(C)(C)O)cn3-c3ccccc3)c2)cn1` [Example 170, N-(4-(4-((2-hydroxy-2-methylpropyl)amino)-4-oxobutyl)-1-phenyl-1H-imidazol-2-yl)-3-(1-methyl-1H-pyrazol-4-yl)benzamide], the IC50 is less than 50 nM. The same measure for `Cn1cc(-c2cccc(C(=O)Nc3nc(CCCC(=O)NCCC(C)(C)O)cn3-c3ccccc3)c2)cn1` [Example 171, N-(4-(4-((3-hydroxy-3-methylbutyl)amino)-4-oxobutyl)-1-phenyl-1H-imidazol-2-yl)-3-(1-methyl-1H-pyrazol-4-yl)benzamide]: less than 50 nM.

As for `Cn1cc(-c2cccc(C(=O)Nc3nc(CCCC(=O)NCC4CCOCC4)cn3-c3ccccc3)c2)cn1` [Example 172, 3-(1-methyl-1H-pyrazol-4-yl)-N-(4-(4-oxo-4-(((tetrahydro-2H-pyran-4-yl)methyl)amino)butyl)-1-phenyl-1H-imidazol-2-yl)benzamide], the concentration for half-maximal inhibition (IC50) was less than 50 nM. The same measure for `Cn1cc(-c2cccc(C(=O)Nc3nc(CCCC(=O)N4CCN(Cc5ccc(OC(F)(F)F)cc5)CC4)cn3-c3ccccc3)c2)cn1` [Example 173, 3-(1-methyl-1H-pyrazol-4-yl)-N-(4-(4-oxo-4-(4-(4-(trifluoromethoxy)benzyl)piperazin-1-yl)butyl)-1-phenyl-1H-imidazol-2-yl)benzamide]: 50 to 100 nM; for `Cn1cc(-c2cccc(C(=O)Nc3nc(CCCC(=O)N4CCCC[C@@H]4CCO)cn3-c3ccccc3)c2)cn1` [Example 174, (R)—N-(4-(4-(2-(2-hydroxyethyl)piperidin-1-yl)-4-oxobutyl)-1-phenyl-1H-imidazol-2-yl)-3-(1-methyl-1H-pyrazol-4-yl)benzamide]: less than 50 nM.

The term IC50 denotes the concentration needed to halve the response being measured.
